Reference: patent EP2468718A1, “Cabanillasin, a new antifungal compound, produced by entomopathogenic xenorhabdus cabanillasii” (Nosopharm, priority 2010, dated 2012)
Converted amounts (≈) assume the structure as drawn. Like-named read-outs stand apart in the source and are kept apart here.

Experiments:
[1] = tested on: Candida krusei ATCC 6258; assay: Antifungal susceptibility testing, NCCLS M27-A2 broth microdilution (yeasts); type: cell-based; settings: Pichia kudriavzevii, ATCC6258; for inhibition at 0.09 µg/mL / inhibition at 0.19 µg/mL / inhibition at 0.39 µg/mL / inhibition at 0.78 µg/mL / inhibition at 1.56 µg/mL / inhibition at 3.12 µg/mL / inhibition at 6.25 µg/mL / inhibition at 12.5 µg/mL / inhibition at 25 µg/mL / inhibition at 50 µg/mL: read-out: % of growth inhibition
Experimental: (§1) Cabanillasin activity was tested against different fungal human pathogens: ascomycetes yeasts (Candida albicans ATCC 90029, Candida Glabrata ATCC 90030, Candida krusei ATCC 6258 and Candida lusitaniae CBS 6936), basidiomycetes yeasts (Cryptococcus neoformans clinical strain), ascomycetes filamentous fungi (Aspergilus fumigatus clinical strain, Fusarium oxysporum clinical strain) and zygomycetes filamentous fungi (Rhizopus oryzae environemental strain) by the M38-A microdilution method with RPMI 1640 medium (RPMI 1640, MOPS 160 mM, glucose 18 g/L, pH 7) as recommended in the […]. The NCCLS M27-A2 broth microdilution method (NCCLS) was used when yeasts were tested.
(§2) Yeasts and filamentous inoculi were prepared on YPD medium (yeast extract 10 g/L, peptone 10 g/L and glucose 20 g/L) and Malt medium (malt extract 20 g/L) respectively. The densities of inoculi were adjusted by dilution in RPMI 1640 broth to a value ranged from 5.10^2 to 5.10^3 CFU/mL for yeasts isolates and 5.10^3 to 5.10^4 CFU/mL for filamentous fungi. Microdilution trays (96 U-bottom shaped) containing 190 µL fungal inoculum were added with 10 µL Cabanillasin solution (final concentration ranging from 50 to 0.098 mg/L for all fungi). After inoculation of the trays, all microdilution trays were incubated at 35°C in ambient air. The culture absorbance was measured at 600 nm, 24 h and 48 h after the beginning of the experiments for the yeasts and 48 h and 72 h after the beginning of the experiments for filamentous fungi and Cryptococcus neoformans. The activity results correspond to a percentage of growth inhibition ((1-Abs600 nm culture with Cabanillasin)/ Abs600 nm culture without Cabanillasin) x 100.
(§3) The IC50 value is the concentration at which inhibition of growth is equal to 50%. MICs for Candida species were determined at 24 h and 48 h and corresponded to 100% of growth inhibition. Amphotericin B was provided as standard (final concentration ranging from 16 to 0.03 mg/L for all fungi). Experiments were done in duplicate.

[2] = tested on: Candida lusitaniae CBS 6936; assay: as above; type: cell-based; settings: Clavispora lusitaniae, CBS6936; for inhibition at 0.09 µg/mL / inhibition at 0.19 µg/mL / inhibition at 0.39 µg/mL / inhibition at 0.78 µg/mL / inhibition at 1.56 µg/mL / inhibition at 3.12 µg/mL / inhibition at 6.25 µg/mL / inhibition at 12.5 µg/mL / inhibition at 25 µg/mL / inhibition at 50 µg/mL: read-out: % of growth inhibition
Experimental: as §1, §2, §3

[3] = tested on: Aspergilus fumigatus clinical strain; assay: Antifungal susceptibility testing, M38-A microdilution method (filamentous fungi); type: cell-based, Aspergillus fumigatus; settings: for inhibition at 0.09 µg/mL / inhibition at 0.19 µg/mL / inhibition at 0.39 µg/mL / inhibition at 0.78 µg/mL / inhibition at 1.56 µg/mL / inhibition at 3.12 µg/mL / inhibition at 6.25 µg/mL / inhibition at 12.5 µg/mL / inhibition at 25 µg/mL / inhibition at 50 µg/mL: Aspergillus fumigatus, read-out: % of growth inhibition
Experimental: as §1, §2, §3

[4] = tested on: Fusarium oxysporum clinical strain; assay: as above; type: cell-based; settings: for inhibition at 0.09 µg/mL / inhibition at 0.19 µg/mL / inhibition at 0.39 µg/mL / inhibition at 0.78 µg/mL / inhibition at 1.56 µg/mL / inhibition at 3.12 µg/mL / inhibition at 6.25 µg/mL / inhibition at 12.5 µg/mL / inhibition at 25 µg/mL / inhibition at 50 µg/mL: read-out: % of growth inhibition
Experimental: as §1, §2, §3

[5] = tested on: Rhizopus oryzae environemental strain; assay: as above; type: cell-based; settings: for inhibition at 0.09 µg/mL / inhibition at 0.19 µg/mL / inhibition at 0.39 µg/mL / inhibition at 0.78 µg/mL / inhibition at 1.56 µg/mL / inhibition at 3.12 µg/mL / inhibition at 6.25 µg/mL / inhibition at 12.5 µg/mL / inhibition at 25 µg/mL / inhibition at 50 µg/mL: Rhizopus arrhizus, read-out: % of growth inhibition
Experimental: as §1, §2, §3

[6] = 24 h of incubation, 100% of growth inhibition

CC(=O)NC(=N)NCCCCNC(=N)NCCCCNC(=N)NCCCCNC(=N)NCCCCN [Cabanillasin]
inhibition at 0.09 µg/mL ([1]; 24 h incubation): 0%
inhibition at 0.09 µg/mL ([1]; 48 h incubation): 0%
inhibition at 0.19 µg/mL ([1]; 24 h incubation): 0%
inhibition at 0.19 µg/mL ([1]; 48 h incubation): 0%
inhibition at 0.39 µg/mL ([1]; 24 h incubation): 0%
inhibition at 0.39 µg/mL ([1]; 48 h incubation): 0%
inhibition at 0.78 µg/mL ([1]; 24 h incubation): 0%
inhibition at 0.78 µg/mL ([1]; 48 h incubation): 0%
inhibition at 1.56 µg/mL ([1]; 24 h incubation): 0%
inhibition at 1.56 µg/mL ([1]; 48 h incubation): 0%
inhibition at 3.12 µg/mL ([1]; 24 h incubation): 9%
inhibition at 3.12 µg/mL ([1]; 48 h incubation): 0%
inhibition at 6.25 µg/mL ([1]; 24 h incubation): 79%
inhibition at 6.25 µg/mL ([1]; 48 h incubation): 31.2%
inhibition at 12.5 µg/mL ([1]; 24 h incubation): 91%
inhibition at 12.5 µg/mL ([1]; 48 h incubation): 83%
inhibition at 25 µg/mL ([1]; 24 h incubation): 100%
inhibition at 25 µg/mL ([1]; 48 h incubation): 88.5%
inhibition at 50 µg/mL ([1]; 24 h incubation): 100%
inhibition at 50 µg/mL ([1]; 48 h incubation): 92.9%
IC50 ([1]; 24 h of incubation): 6.25 µg/mL (≈ 12.2 µM)
MIC [1, 6]: 25 µg/mL (≈ 48.9 µM)
inhibition at 0.09 µg/mL ([2]; 24 h incubation): 11.7%
inhibition at 0.09 µg/mL ([2]; 48 h incubation): 0%
inhibition at 0.19 µg/mL ([2]; 24 h incubation): 14.5%
inhibition at 0.19 µg/mL ([2]; 48 h incubation): 0%
inhibition at 0.39 µg/mL ([2]; 24 h incubation): 11.5%
inhibition at 0.39 µg/mL ([2]; 48 h incubation): 0%
inhibition at 0.78 µg/mL ([2]; 24 h incubation): 20.2%
inhibition at 0.78 µg/mL ([2]; 48 h incubation): 0%
inhibition at 1.56 µg/mL ([2]; 24 h incubation): 64.8%
inhibition at 1.56 µg/mL ([2]; 48 h incubation): 0%
inhibition at 3.12 µg/mL ([2]; 24 h incubation): 86.7%
inhibition at 3.12 µg/mL ([2]; 48 h incubation): 57%
inhibition at 6.25 µg/mL ([2]; 24 h incubation): 94.7%
inhibition at 6.25 µg/mL ([2]; 48 h incubation): 74.6%
inhibition at 12.5 µg/mL ([2]; 24 h incubation): 97.7%
inhibition at 12.5 µg/mL ([2]; 48 h incubation): 86.1%
inhibition at 25 µg/mL ([2]; 24 h incubation): 100%
inhibition at 25 µg/mL ([2]; 48 h incubation): 95.9%
inhibition at 50 µg/mL ([2]; 24 h incubation): 100%
inhibition at 50 µg/mL ([2]; 48 h incubation): 100%
IC50 ([2]; 24 h of incubation): 1.56 µg/mL (≈ 3.05 µM)
MIC [2, 6]: 25 µg/mL (≈ 48.9 µM)
inhibition at 0.09 µg/mL ([3]; 48 h incubation): 0%
inhibition at 0.09 µg/mL ([3]; 72 h incubation): 0%
inhibition at 0.19 µg/mL ([3]; 48 h incubation): 0%
inhibition at 0.19 µg/mL ([3]; 72 h incubation): 0%
inhibition at 0.39 µg/mL ([3]; 48 h incubation): 0%
inhibition at 0.39 µg/mL ([3]; 72 h incubation): 0%
inhibition at 0.78 µg/mL ([3]; 48 h incubation): 0%
inhibition at 0.78 µg/mL ([3]; 72 h incubation): 0%
inhibition at 1.56 µg/mL ([3]; 48 h incubation): 0%
inhibition at 1.56 µg/mL ([3]; 72 h incubation): 0%
inhibition at 3.12 µg/mL ([3]; 48 h incubation): 0%
inhibition at 3.12 µg/mL ([3]; 72 h incubation): 0%
inhibition at 6.25 µg/mL ([3]; 48 h incubation): 0%
inhibition at 6.25 µg/mL ([3]; 72 h incubation): 0%
inhibition at 12.5 µg/mL ([3]; 48 h incubation): 0%
inhibition at 12.5 µg/mL ([3]; 72 h incubation): 0%
inhibition at 25 µg/mL ([3]; 48 h incubation): 0%
inhibition at 25 µg/mL ([3]; 72 h incubation): 0%
inhibition at 50 µg/mL ([3]; 48 h incubation): 65.2%
inhibition at 50 µg/mL ([3]; 72 h incubation): 0%
activity ([3]; at 48h): weak activity
activity ([3]; at 72 h): no activity
inhibition at 0.09 µg/mL ([4]; 48 h incubation): 0%
inhibition at 0.09 µg/mL ([4]; 72 h incubation): 0%
inhibition at 0.19 µg/mL ([4]; 48 h incubation): 0%
inhibition at 0.19 µg/mL ([4]; 72 h incubation): 0%
inhibition at 0.39 µg/mL ([4]; 48 h incubation): 0%
inhibition at 0.39 µg/mL ([4]; 72 h incubation): 0%
inhibition at 0.78 µg/mL ([4]; 48 h incubation): 0%
inhibition at 0.78 µg/mL ([4]; 72 h incubation): 0%
inhibition at 1.56 µg/mL ([4]; 48 h incubation): 0%
inhibition at 1.56 µg/mL ([4]; 72 h incubation): 0%
inhibition at 3.12 µg/mL ([4]; 48 h incubation): 32.1%
inhibition at 3.12 µg/mL ([4]; 72 h incubation): 0%
inhibition at 6.25 µg/mL ([4]; 48 h incubation): 68.6%
inhibition at 6.25 µg/mL ([4]; 72 h incubation): 48.6%
inhibition at 12.5 µg/mL ([4]; 48 h incubation): 71.6%
inhibition at 12.5 µg/mL ([4]; 72 h incubation): 56.4%
inhibition at 25 µg/mL ([4]; 48 h incubation): 66.6%
inhibition at 25 µg/mL ([4]; 72 h incubation): 72.5%
inhibition at 50 µg/mL ([4]; 48 h incubation): 80.2%
inhibition at 50 µg/mL ([4]; 72 h incubation): 79.8%
IC50 ([4]; incubation time not stated): 6.25 µg/mL (≈ 12.2 µM)
inhibition at 0.09 µg/mL ([5]; 48 h incubation): 0%
inhibition at 0.09 µg/mL ([5]; 72 h incubation): 0%
inhibition at 0.19 µg/mL ([5]; 48 h incubation): 0%
inhibition at 0.19 µg/mL ([5]; 72 h incubation): 0%
inhibition at 0.39 µg/mL ([5]; 48 h incubation): 0%
inhibition at 0.39 µg/mL ([5]; 72 h incubation): 0%
inhibition at 0.78 µg/mL ([5]; 48 h incubation): 0%
inhibition at 0.78 µg/mL ([5]; 72 h incubation): 0%
inhibition at 1.56 µg/mL ([5]; 48 h incubation): 0%
inhibition at 1.56 µg/mL ([5]; 72 h incubation): 0%
inhibition at 3.12 µg/mL ([5]; 48 h incubation): 0%
inhibition at 3.12 µg/mL ([5]; 72 h incubation): 0%
inhibition at 6.25 µg/mL ([5]; 48 h incubation): 0%
inhibition at 6.25 µg/mL ([5]; 72 h incubation): 0%
inhibition at 12.5 µg/mL ([5]; 48 h incubation): 0%
inhibition at 12.5 µg/mL ([5]; 72 h incubation): 0%
inhibition at 25 µg/mL ([5]; 48 h incubation): 0%
inhibition at 25 µg/mL ([5]; 72 h incubation): 0%
inhibition at 50 µg/mL ([5]; 48 h incubation): 40.7%
inhibition at 50 µg/mL ([5]; 72 h incubation): 0%
activity ([5]; at 48h): weak activity
activity ([5]; at 72 h): no activity
